Experimental data: patent US20070135382A1, “Use of peroxisome proliferator-activated receptor gamma (ppary) and/or retinoic acid receptor (rxr) agonists to inhibit platelet functions” (priority 2003, published 2007)

What was measured:
Human blood = assay: PFA-100 clotting (closure) time in human blood; type: cell-based; conditions: vs vehicle only, p=0.012
Protocol: Platelet activation was induced using epinephrine or ADP, and clotting time was assessed using a PFA-100. The PFA-100 allows for an approximation of bleeding times in patients. Longer closure times equal a lower ability to form a clot. […] Human blood was exposed to 15d-PGJ2 or vehicle only followed by testing in the PFA-100 activated with ADP.

human platelets [1] = assay: Thrombin-induced platelet release of TXB2 (enzyme immunoassay); type: cell-based; conditions: 20 μM for 15 min, then 0.8 U/ml thrombin, 5-60 min
Protocol: (§1) Platelets were then activated with 0.8 U/ml thrombin or buffer and samples were taken at the 5, 10, 15, 30 and 60 minutes time points to measure human soluble CD40L and PGE2. CD40L assays were performed with a commercially available ELISA specific for CD40L (Bender Biomedical Systems, San Bruno, Calif.). […] The stable end product of platelet TXA2 synthesis, namely TXB2, was measured using a highly specific enzyme immunoassay from Cayman Chemical Company as per the manufacturer's directions.
(§2) Platelets were then incubated with buffer or with thrombin, a powerful platelet activator.

PPARγ [2] = molecular target: T1, PPARγ (Homo sapiens, UniProt P37231); assay: Electrophoretic mobility shift assay for PPARγ DNA binding in Meg-01 cells; type: cell-based; conditions: 15d-PGJ2 5 μM or ciglitazone 10 μM, 4 hours, nuclear extract, vs DMSO
T1 construct: endogenous in cells; host or cells: purified human blood platelets
T1 sequence (P37231 1-505): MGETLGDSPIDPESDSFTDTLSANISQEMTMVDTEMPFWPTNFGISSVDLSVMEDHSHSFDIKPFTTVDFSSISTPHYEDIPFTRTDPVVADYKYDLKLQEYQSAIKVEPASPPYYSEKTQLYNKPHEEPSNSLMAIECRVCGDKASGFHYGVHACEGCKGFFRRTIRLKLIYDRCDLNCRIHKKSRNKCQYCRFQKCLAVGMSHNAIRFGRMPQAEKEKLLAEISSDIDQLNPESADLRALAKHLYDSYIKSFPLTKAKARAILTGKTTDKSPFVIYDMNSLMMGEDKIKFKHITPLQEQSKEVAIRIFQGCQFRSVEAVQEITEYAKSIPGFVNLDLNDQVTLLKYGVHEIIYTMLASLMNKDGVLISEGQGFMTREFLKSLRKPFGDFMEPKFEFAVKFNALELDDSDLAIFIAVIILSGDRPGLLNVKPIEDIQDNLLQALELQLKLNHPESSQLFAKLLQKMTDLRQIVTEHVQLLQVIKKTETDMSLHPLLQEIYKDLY
T1 sequence (P19793 1-462 partner): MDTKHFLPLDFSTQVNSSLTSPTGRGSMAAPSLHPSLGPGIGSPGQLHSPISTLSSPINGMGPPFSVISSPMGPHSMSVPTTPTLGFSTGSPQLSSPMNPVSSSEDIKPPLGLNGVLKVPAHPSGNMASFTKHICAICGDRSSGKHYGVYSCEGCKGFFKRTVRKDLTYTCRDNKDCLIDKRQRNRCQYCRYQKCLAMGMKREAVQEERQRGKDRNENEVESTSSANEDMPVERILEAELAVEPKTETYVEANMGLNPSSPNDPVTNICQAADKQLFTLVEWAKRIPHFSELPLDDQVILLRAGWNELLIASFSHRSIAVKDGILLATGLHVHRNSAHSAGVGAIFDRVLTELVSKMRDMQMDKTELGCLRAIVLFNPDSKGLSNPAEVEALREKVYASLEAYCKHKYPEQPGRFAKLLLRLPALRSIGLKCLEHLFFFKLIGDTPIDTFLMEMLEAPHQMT
Protocol: Cells were treated with 5 μM 15d-PGJ2, 10 μM ciglitazone, or DMSO (vehicle control) for 4 hours. The cells were washed in cold PBS and then incubated on ice in hypotonic buffer (10 mM HEPES-KOH (pH 7.9), 1.5 mM MgCl2, 10 mM KCl, 0.5 mM DTT, 0.5% Nonidet P-40 and 0.2 mM PMSF) for 10 minutes. The lysates were vortexed for 10 seconds and centrifuged for 15 seconds. The pellet was isolated carefully and re-suspended in 80 μl of hypertonic buffer (20 mM HEPES-KOH (pH 7.9), 1.5 mM MgCl2, 25% glycerol, 420 mM NaCl, 0.2 mM EDTA, 0.5 mM DTT, and 0.2 mM PMSF). After incubation on ice for 20 minutes, lysates were centrifuged for 20 seconds and the supernatant containing the nuclear protein was transferred to new tubes. Protein quantification was performed using a BCA assay kit. Platelet protein isolation was done as described for the PPARγ activity assay. For the gel shift assay of Meg-01 and platelets, the consensus sequence for PPARγ (5′-[…]-3′) (SEQ ID NO: 1) was labeled with [γ-32P]ATP using T4 Polynucleotide Kinase (Life technologies). Micro Bio-Spin P-30 Tris Chromatography Columns were used to remove the unbound nucleotides (Bio-Rad). […]

human platelets [3] = assay: Thrombin-induced platelet release of PGE2 (enzyme immunoassay); type: cell-based; conditions: 20 μM for 15 min, then 0.8 U/ml thrombin
Protocol: as §1

PPARγ [4] = molecular target: T1, PPARγ; assay: TransAM PPARγ DNA binding activity assay in platelets; type: cell-based; conditions: platelets exposed to 20 μM agonist, 2 h at 37° C.
Protocol: Platelets were lysed with hypotonic buffer (10 mM HEPES-KOH (pH 7.9), 1.5 mM MgCl2, 10 mM KCl, 0.5 mM DTT, 0.5% Nonidet P-40 and 0.2 mM PMSF) and 10 μg of cell extract was incubated in each well of TransAM® PPARγ assay kit (Active Motif, Carlsbad, Calif.) and PPARγ DNA binding was determined as per manufacturers' protocol.
The ability of platelet derived PPARγ to bind its DNA consensus sequence was also measured using the TransAM™ PPARγ assay kit (Active Motif Inc.). In this method the consensus DNA sequence for PPARγ binding (or as a control mutated oligonucleotides) is plate-bound. A cell lysate is then added to the well, washed and next incubated with an enzyme-conjugated anti-PPARγ antibody that recognizes only DNA-bound PPARγ. Following substrate addition, a colored product is formed.

platelets [5] = assay: ATP release from platelets during aggregation (Lumi-aggregometry); conditions: 20 μM
Protocol: ATP release from platelets during aggregation was characterized by Lumi-Aggregometry after stimulation with thrombin (1 U/ml) or ADP (5 μM). […] The rate of release with normal platelets was defined as 100%. […] The results represent mean±SEM of three experiments.
Platelet aggregation was performed using the turbidometric method of Born (“Quantitative Investigations into the Aggregation of Blood Platelets,” J. Physiol. Lond. 162:67 (1962), which is hereby incorporated by reference in its entirety) with simultaneous measurement of ATP release using a Chrono-log Lumi-aggregometer with AGGRO/LINK for Windows Software version 5.1.6 (Chrono-log Corp., Havertown, Pa.). Blood was collected by clean venipuncture from normal donors who abstained from drugs known to affect platelet aggregation into 0.105M/sodium citrate. Platelet rich plasma (PRP) was prepared by centrifugation at 150×g for 10 min at 20° C., and the platelet count adjusted to 250,000/μl by mixing PRP and platelet poor plasma from the same donor. All experiments were performed within 3 hours of blood collection. Aggregation was performed with ADP, and the slope of aggregation and amplitude were computed using accompanying software. The effects of the PPARγ agonist 15d-PGJ2 were tested by addition of varying concentrations to PRP for 15 min before aggregation. The 15d-PGJ2 was dissolved in DMSO, with a final concentration of DMSO in the samples of approximately 0.1%. […] Additional clotting studies were performed using a PFA-100 according to the manufacturer's instructions. Basically, clotting time (induced by clotting activator such as epinephrine or ADP) was measured in the presence or absence of a PPARγ agonist, and differences noted.
To determine if a PPARγ agonist would inhibit platelet aggregation, the natural PPARγ agonist 15d-PGJ2 was added to PRP and aggregation and ATP release stimulated with ADP.

platelets [6] = assay: Platelet aggregation in platelet rich plasma (turbidometric method of Born); type: cell-based, human
Protocol: Platelet aggregation was performed using the turbidometric method of Born (“Quantitative Investigations into the Aggregation of Blood Platelets,” J. Physiol. Lond. 162:67 (1962), which is hereby incorporated by reference in its entirety) with simultaneous measurement of ATP release using a Chrono-log Lumi-aggregometer with AGGRO/LINK for Windows Software version 5.1.6 (Chrono-log Corp., Havertown, Pa.). Blood was collected by clean venipuncture from normal donors who abstained from drugs known to affect platelet aggregation into 0.105M/sodium citrate. Platelet rich plasma (PRP) was prepared by centrifugation at 150×g for 10 min at 20° C., and the platelet count adjusted to 250,000/μl by mixing PRP and platelet poor plasma from the same donor. All experiments were performed within 3 hours of blood collection. Aggregation was performed with ADP, and the slope of aggregation and amplitude were computed using accompanying software. The effects of the PPARγ agonist 15d-PGJ2 were tested by addition of varying concentrations to PRP for 15 min before aggregation. The 15d-PGJ2 was dissolved in DMSO, with a final concentration of DMSO in the samples of approximately 0.1%.

human platelets [7] = assay: Thrombin-induced platelet release of CD40L (ELISA); type: cell-based; conditions: 20 μM for 15 min, then 0.8 U/ml thrombin, 5-60 min
Protocol: as §1, §2

CCCCC/C=C/C=C1/C(=O)C=C[C@@H]1C/C=C\CCCC(=O)O [15d-PGJ2, 15D-prostaglandin J2]
PFA-100 closure time, ADP activated (Human blood): takes longer to form a closure | release of TXB2 (human platelets [1]): largely prevented | level of active (DNA binding) PPARγ in Meg-01 cells by EMSA (PPARγ [2]): increased | thrombin-induced release of PGE2 (human platelets [3]): substantially prevented | binding to the PPARγ DNA response element (TransAM) (PPARγ [4]): significantly enhances binding | ATP release amplitude, % of normal platelets (platelets [5]; ADP-stimulated, n=7): 22±10% | ATP release slope, % of normal (platelets [5]; ADP-stimulated, n=7): 15±5% | rate of ATP release with thrombin (platelets [5]; thrombin 1 U/ml): significant (P=0.002) reduction | aggregation slope (rate) (platelets [6]; 10 μM, ADP as platelet agonist): decrease the aggregation slope | initial slope of platelet aggregation, % of the normal (untreated) (platelets [6]; 20 μM, ADP-stimulated PRP, first 16 seconds, mean±SEM, n=7): 83±5% | amplitude of aggregation, % of normal platelets (platelets [6]; 20 μM, ADP-stimulated PRP, mean±SEM, n=7): 64±11% | platelet aggregation, concentration dependence (platelets [6]; varying concentrations, 15 min before ADP): concentration dependent inhibition | release of CD40L (human platelets [7]): largely prevented
